Reference: patent publication US10471028B2, “Small molecule efflux pump inhibitors” (UNIVERSITY OF ROCHESTER, priority 2014, dated 2019)
Like-named read-outs stand apart in the source and are kept apart here.

What was measured:
[1] = test system: mammalian calcium channel; experiment: Mammalian calcium channel assay (Fluo-4); type: cell-based, human; conditions: HEK 293T, carbachol treatment alone
From the text: Many laboratory bacterial efflux inhibitor tool compounds cannot be used in the clinical setting because they limit mammalian ion channel activity. […] Thus, we measured the effects of ABEPI1 and ABEPI2 on mammalian calcium channel functions using Fluo-4 Direct Calcium Channel Assay kits (Life Technologies, Carlsbad, Calif.), in which the dye Fluo-4 was used to measure changes in mammalian cytoplasmic Ca^2+ levels in response to the calcium channel stimulator, carbachol, in the absence and presence of test compound. […] Next, 2× Fluo-4 dye supplemented with Probenecid (5 mM) was added to each well and allowed to equilibrate for 1 hr at 37° C. To determine whether ABEPI1 or ABEPI2 affect Ca^2+ channel activity, Fluo-4 fluorescence measures (excitation 495nm; emission 516nm) were then taken every second for 15 sec.

[2] = test system: A. baumannii strain 98-37-09; experiment: Potentiation of ciprofloxacin toward serum grown A. baumannii; type: cell-based, Acinetobacter baumannii; conditions: for Potentiate Ciprofloxacin A. baumannii (value in parentheses: log reduction of viability): 1×MEC with ciprofloxacin versus ciprofloxacin alone, plating; for Potentiate Ciprofloxacin A. baumannii: 100% human serum, 0.125 μg ml^−1 ciprofloxacin, 1× or 2× MEC, 48 hour, growth inhibition
From the text: As a means to further prioritize non-toxic compounds of interest based on their therapeutic promise, it was considered that broad spectrum antimicrobial efflux pump inhibitors may be more clinically valuable than narrow-spectrum agents that only potentiate the activity of a limited number of antibiotics or that display activity toward a single bacterial species. […] To do so, 1×10^5 A. baumannii strain 98-37-09 were inoculated into individual wells of microtiter plates containing 100% human serum supplemented with 0.125 μg ml^−1 ciprofloxacin and 0, 1×, or 2× the compound's MEC, as defined by the lowest concentration needed to potentiated minocycline's antimicrobial effects (above). Plates were incubated for 48 hour at which point each compound's ability to potentiate ciprofloxacin was measured, as growth inhibition.

[3] = test system: A. baumannii strain 98-37-09; experiment: Cellular accumulation of minocycline (HPLC, triple-quadrupole MS); type: cell-based, Acinetobacter baumannii; conditions: human serum with 0.5 μg mL^−1 minocycline plus test compound (0.5×MEC, 1×MEC), 48 hours
[4] = test system: A. baumannii strain 98-37-09; experiment: MEC determination: potentiation of minocycline toward serum grown A. baumannii; type: cell-based, Acinetobacter baumannii; conditions: for Log-reduction Colony Forming Units (ml^−1): 1×MEC of compound plus minocycline in serum, versus minocycline alone, plating; for MEC: lowest concentration inhibiting growth in 100% human serum with 0.5 μg ml^−1 minocycline, 48 hr
[5] = test system: A. baumannii strain 98-37-09; experiment: Ethidium bromide efflux assay; type: cell-based, Acinetobacter baumannii; conditions: for ethidium bromide fluorescent signal in comparison to mock treated cells: 10 μg ml^−1 ethidium bromide, 90 min; for cellular ethidium fluorescence compared with PAβN: time course after treatment
Method: To distinguish whether the antimicrobial potentiation of ABEPI1 and ABEPI2 correlates with the inhibition of A. baumannii's efflux properties, conventional ethidium bromide efflux assays were performed in the presence and absence of each compound. The assay is predicated upon the fluorescent properties of ethidium bromide during intercalation into cellular nucleic acids, whereby efflux active cells display limited intracellular ethidium bromide accumulation and, consequently, low fluorescence. Conversely, efflux inhibition leads to increased cellular ethidium bromide levels and correspondingly high fluorescence relative to efflux proficient cells. Bacterial ethidium bromide efflux activity assays were used to measure the efflux inhibitory properties of compounds of interest. For assays, an overnight culture of A. baumannii strain 98-37-09 was diluted (1:100) into 100% human serum or fresh LB and grown to mid-exponential phase. Cell pellets were collected via centrifugation 900×g for 20 minutes, washed 3× with 20 mM sodium phosphate buffer and resuspended to an OD600nm=0.2 in sodium phosphate buffer. Approximately 1×10^6 CFU were loaded into individual wells of 96-well white-bottom plates, mixed with 10 μg ml^−1 ethidium bromide, and ethidium fluorescence (excitation 530nm; emission 600nm) was measured every 5 min for 90 min on a Spectramax5 fluorimeter (Molecular Devices, Sunnyvale, Calif.). To determine if the putative efflux pump inhibitors affected ethidium bromide efflux, cells were treated with the indicated amount of compound of interest or the efflux pump inhibitor, PaβN, two minutes after fluorescence monitoring began.

human HepG2 cells = experiment: MTT cell viability (cytotoxicity) assay
Method: To distinguish putatively non-toxic from human cytotoxic compounds, conventional 3-(4,5-dimethylthiazol-2yl)-2,5-diphenyltetrazolium bromide (MTT) cell viability assays (American Type Culture Collection, Manassas, Va.) were performed for each compound of interest at 1× and 4× their MEC. Briefly, human HepG2 cells were grown to approximately 1×10^6 cells per well in Dulbecco's Modified Eagle Media supplemented with 10% fetal bovine serum (Invitrogen, Carlsbad, Calif.) then treated with 1× or 4× the MEC of the indicated […] Cell viability was measured following the addition of the tetrazolium salt (MTT) as per the manufacturer's recommendations; cells challenged with 50 ug ml^−1 Mitomycin C (Sigma Aldrich) and mock-treated cells served as positive and negative controls, respectively.

P. aeruginosa PA01 = experiment: Potentiation of ciprofloxacin toward serum grown P. aeruginosa; type: cell-based, Pseudomonas aeruginosa; conditions: PA01 in 100% human serum, 1×MEC, ciprofloxacin 0 to 2 μg ml^−1
Method: To do so, PA01 was inoculated into individuals wells of a microtiter plate containing 100% human serum supplemented with 1×MEC of test compound and increasing concentrations of ciprofloxacin (0 to 2 μg ml^−1) and cell viability was measured.

A. baumannii = experiment: Antibiotic susceptibility assay in LB medium or 100% human serum; type: cell-based, Acinetobacter baumannii
Method: The antibiotic susceptibility of A. baumannii and Pseudomonas aeruginosa grown in either LB medium or 100% human serum was measured according to the method described below. Briefly, the indicated bacterial species/strain was grown overnight in LB medium, diluted into fresh medium (1:100 dilution) and grown to mid-exponential phase (OD600nm=0.4 to 0.5) at 37° C. with aeration. […] To quantify the antimicrobial effects of each antibiotic toward bacteria grown in LB or serum, well constitutes were serially diluted in PBS and plated on LB agar to enumerate the CFU mL^−1.

Compound	Potentiate Ciprofloxacin A. baumannii [2]	Minocylcine Per Cell (femtomoles cell^−1) [3] [femtomoles cell^−1]	Log-reduction Colony Forming Units (ml^−1) [4] [log]	MEC [4] [µg/mL]	% Viability (human HepG2 cells) [%]	other results
C[N+](C)(C)CCOC(N)=O [Carbachol, carbamylocholine chloride]	–	–	–	–	–	increase in cytoplasmic Ca^2+ levels [1]: approximately 2.3 fold
NS(=O)(=O)c1ccc(/N=C/c2ccc(Cl)cc2)cc1 [ST009675]	Yes	5.88E−04	6.73	2	–	Potentiate Ciprofloxacin A. baumannii (value in parentheses: log reduction of viability) [2]: (2.28) log; ethidium bromide fluorescent signal in comparison to mock treated cells [5]: significantly increased signal; cellular ethidium fluorescence compared with PAβN [5]: levels exceeding that of PABN within the first 20 min of treatment; % Viability (human HepG2 cells; human, 48 h, 4 ×MEC): 96.6%; Potentiate Ciprofloxacin P. aeruginosa (P. aeruginosa PA01): Yes; Potentiate Ciprofloxacin P. aeruginosa (P. aeruginosa PA01; listed as ABEPI1): potentiated the activity of ciprofloxacin
Cc1ccc(C2N(Cc3ccccc3)CCCN2Cc2ccccc2)o1 [ST048001]	No	1.99E−04	7.06	32	82.72	–
COC(=O)c1ccccc1NC(=O)CN1C(=O)c2ccccc2S1(=O)=O [ST058165]	Yes	1.11E−04	6.27	32	76.9	Potentiate Ciprofloxacin A. baumannii (value in parentheses: log reduction of viability) [2]: (1.53) log; Potentiate Ciprofloxacin P. aeruginosa (P. aeruginosa PA01): No
COc1ccc2c(c1)CCC(C)N2S(=O)(=O)c1ccc(C2CNC(=O)C2)cc1 (centres unmarked) [ST058899]	No	1.08E−04	6.21	64	80.69	–
Nc1ccc(S(=O)(=O)Nc2ncccn2)cc1 [ST059447]	No	4.52E−05	5.74	4	76.78	–
O=C1c2ccccc2C(=O)N1CCN1CCNCC1 [ST059581]	No	5.64E−05	6.12	32	84.56	–
COc1cc(C(=O)Nc2ccccc2C(=O)NCC2CCCO2)cc(OC)c1OC (centres unmarked) [ST060053]	No	1.78E−04	4.94	4	76.11	–
COC(=O)c1ccc(COc2ccc(-c3nnn[nH]3)cc2)cc1 [ST060272]	No	3.67E−07	6.90	32	85.35	–
CC(C)(C)NC(=O)CSc1nnnn1C(C)(C)C [ST060273]	Yes	6.84E−06	6.53	32	–	Potentiate Ciprofloxacin A. baumannii (value in parentheses: log reduction of viability) [2]: (4.36) log; ethidium bromide fluorescent signal in comparison to mock treated cells [5]: significantly increased signal; cellular ethidium fluorescence compared with PAβN [5]: essentially identical to those of PAβN until approximately 35 min post-treatment; % Viability (human HepG2 cells; human, 48 h, 4 ×MEC): 90.1%; Potentiate Ciprofloxacin P. aeruginosa (P. aeruginosa PA01): Yes
O=C(O)c1cn(C2CC2)c2cc(N3CCNCC3)c(F)cc2c1=O [ciprofloxacin]	–	–	–	–	–	susceptibility of serum grown versus LB grown cells (A. baumannii; strain 98-37-09, ciprofloxacin ≤1 μg ml^−1): significantly (P<0.001) less susceptible
COC(=O)[C@H]1[C@H]2C[C@@H]3c4[nH]c5cc(OC)ccc5c4CCN3C[C@H]2C[C@@H](OC(=O)c2cc(OC)c(OC)c(OC)c2)[C@@H]1OC [reserpine]	–	–	–	–	–	restoration of tigecycline susceptibility in serum (A. baumannii; strain 01-12-05, addition of efflux pump inhibitor): partially restored; restoration of ciprofloxacin susceptibility in serum (A. baumannii; strain 98-37-09, serum supplemented with efflux pump inhibitor): Ciprofloxacin susceptibility could be restored
CN(C)[C@@H]1C(O)=C(C(N)=O)C(=O)[C@@]2(O)C(O)=C3C(=O)c4c(O)cccc4[C@@](C)(O)[C@H]3C[C@@H]12 [tetracycline]	–	–	–	–	–	cell viability, LB grown (A. baumannii; 4-16 μg ml^−1 tetracycline, LB): < 1×10^1 colony forming units
CN(C)c1cc(NC(=O)CNC(C)(C)C)c(O)c2c1C[C@H]1C[C@H]3[C@H](N(C)C)C(O)=C(C(N)=O)C(=O)[C@@]3(O)C(O)=C1C2=O [tigecycline]	–	–	–	–	–	concentration with clear antimicrobial activity (A. baumannii; strain 01-12-05, LB medium): ≥ 1 µg/mL; susceptibility during growth in serum (A. baumannii; strain 01-12-05, human serum): highly-resistant
phenylalanine arginine beta naphthylamide [PAβN, reference compound]	–	–	–	–	–	ethidium bromide fluorescent signal in comparison to mock treated cells [5]: significantly increased cellular ethidium bromide accumulation; restoration of tetracycline susceptibility in serum (A. baumannii; serum grown, efflux pump inhibitor present): partially restored
